Reference: PubChem BioAssay (NCI)
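Grown in 96-well plates, cells were treated for 48 hours with each compound at five concentrations. Insufficient inhibition: endpoint recorded as highest concentration tested. TGI is the concentration that stops growth completely.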

Legend:
Test in all cases: inhibition of tumour cell growth, NCI panel, 48 h
HOP-62 NSCLC = system: HOP-62 NSCLC
HCT-15 colon = system: HCT-15 colon
COLO 205 colon = system: COLO 205 colon
RPMI-8226 leukemia = system: RPMI-8226 leukemia
NCI-H23 lung = system: NCI-H23 lung
CAKI-1 renal = system: CAKI-1 renal
PC-3 prostate = system: PC-3 prostate
HOP-92 NSCLC = system: HOP-92 NSCLC
MALME-3M melanoma = system: MALME-3M melanoma
BT-549 breast = system: BT-549 breast
IGROV1 ovarian = system: IGROV1 ovarian
MDA-N = system: MDA-N
786-0 renal = system: 786-0 renal
HCT-116 colon = system: HCT-116 colon
UO-31 renal = system: UO-31 renal
SK-MEL-2 melanoma = system: SK-MEL-2 melanoma
NCI-H522 lung = system: NCI-H522 lung
SN12C renal = system: SN12C renal
SNB-19 CNS = system: SNB-19 CNS
SF-268 CNS = system: SF-268 CNS
HS 578T breast = system: HS 578T breast
SW-620 colon = system: SW-620 colon
SF-295 CNS = system: SF-295 CNS
CCRF-CEM leukemia = system: CCRF-CEM leukemia
SF-539 CNS = system: SF-539 CNS
NCI/ADR-RES ovarian = system: NCI/ADR-RES ovarian
K-562 leukemia = system: K-562 leukemia
LOX IMVI melanoma = system: LOX IMVI melanoma
TK-10 renal = system: TK-10 renal
ACHN renal = system: ACHN renal
MOLT-4 leukemia = system: MOLT-4 leukemia
SNB-75 CNS = system: SNB-75 CNS
UACC-62 melanoma = system: UACC-62 melanoma
KM12 colon = system: KM12 colon
HL-60(TB) leukemia = system: HL-60(TB) leukemia
MDA-MB-231 breast = system: MDA-MB-231 breast
MCF7 breast = system: MCF7 breast
NCI-H460 lung = system: NCI-H460 lung
MDA-MB-435 = system: MDA-MB-435
SR leukemia = system: SR leukemia
T-47D breast = system: T-47D breast
HCC-2998 colon = system: HCC-2998 colon
M14 melanoma = system: M14 melanoma
OVCAR-8 ovarian = system: OVCAR-8 ovarian
SK-OV-3 ovarian = system: SK-OV-3 ovarian
EKVX NSCLC = system: EKVX NSCLC
OVCAR-5 ovarian = system: OVCAR-5 ovarian
SK-MEL-5 melanoma = system: SK-MEL-5 melanoma
SK-MEL-28 melanoma = system: SK-MEL-28 melanoma
A549 NSCLC = system: A549 NSCLC
UACC-257 melanoma = system: UACC-257 melanoma
OVCAR-4 ovarian = system: OVCAR-4 ovarian
RXF 393 renal = system: RXF 393 renal
NCI-H226 lung = system: NCI-H226 lung
OVCAR-3 ovarian = system: OVCAR-3 ovarian
DU-145 prostate = system: DU-145 prostate
HT29 colon = system: HT29 colon
U251 CNS = system: U251 CNS

Measured: TGI

COc1cc(C(=O)O)ccc1OS(=O)(=O)O
> 100 µM: all assays above
